The results in this text go back to US20080118580A1, “ADHESION INHIBITION OF FUNGI” (priority 2001, published 2008).

Assay [1] concerns Candida albicans strain SC5314. Briefly: Test for inhibition of the formation of hyphae. It counts as cell-based. Particulars: for hyphae formation (in words): at the concentrations used. As to the method:
An initial culture of the Candida albicans strain SC5314 was grown overnight in minimal medium (0.67% yeast nitrogen base w/o amino acids (Difco), 2% glucose) up to an optical density of 1 at 600 nm, and washed once in sterile double-distilled H2O. For the induction of hyphae, 100 μl to 900 μl of YPS (1% yeast extract, 2% peptone, 10% horse serum (Sigma)) were added, and incubated at 37° C. with shaking. To test the inhibitory action of different substances, farnesol (50 μl/l), propolis extract (200 ppm in ethanolic solution, Sigma, P 5182, origin: Alsace, France) or fucoidan (2 mg/ml, Sigma, F 5631) were added to the medium. A culture of 100 μl of cell suspension in 900 μl of YPD medium (1% yeast extract, 2% peptone, 2% glucose) which was incubated at 30° C. with shaking was used as the control. To quantify the formation of hyphae, 2×100 cells were counted under the microscope (Zeiss Axioscope) every 20 min. and the germ tubes formed calculated as a percentage of the total cells.

A further assay concerns C. albicans. Briefly: Growth test. It counts as cell-based, Candida albicans. Particulars: for Growth rate: YPD medium, 30° C., over 10 hours, reference 0.55. As to the method:
The growth rates were measured over 10 hours in the YPD medium already described above. The optical density was initially set at 0.1 OD and the cultures were incubated at 30° C.
Here it was assumed that an optical density of 1 measured at wavelength 600 nm corresponds to about 10^7 cells.

Assay [2] deals with C. albicans culture (strain SC5314). Briefly: Adhesion test on textiles (tetrazolium blue staining, relative light reflection). It counts as cell-based, Candida albicans. Here is the method:
For assessment of the inhibitory action of different substances on the adhesion of fungi, a procedure with which this adhesion to textiles can be determined semi-quantitatively was developed.
A 50 ml C. albicans culture (strain SC5314) was grown overnight with shaking in a conical flask at 30° C. up to an optical density (OD) of ca. 1 (measured at 600 nm with a spectrophotometer). After washing once in water, the cells were again incubated for one hour at 30° C. with shaking. Next, 2.5 ml of the culture were diluted in 22.5 ml of YPD medium (1% yeast extract, 2% peptone, 2% glucose) or YPS medium (1% yeast extract, 2% peptone, 10% horse serum). The YPD cultures were incubated with shaking for 2 hours at 30° C., and the YPS cultures for 2 hours at 37° C. for the induction of hyphae.
As desired, test substance was added to the media. In addition a 2.5×2.5 cm piece of test fabric (polyester microfibers) was added to the media. After incubation, the textile pieces were washed three times with wash liquor (Perwoll powder, 12 ml/l water) and twice with water (5 min. with shaking each time), then transferred to a 6-well plate and covered with a layer of YPD-tetrazolium blue agar (1% yeast extract, 2% peptone, 2% glucose, 1.5% agar, 0.5 mg/ml tetrazolium blue chloride).
The depth of the blue coloration due to enzymatic conversion of the dyestuff tetrazolium blue chloride (3,3′-[3,3′-dimethoxy(1,1′-biphenyl)-4,4′-diyl]-bis-[2,5-diphenyl-2H-tetrazolium] dichloride (Sigma, T4375) by cellular dehydrogenases of adhered C. albicans served as a measure for the number of adhered Candida cells and was measured by measurement of the relative light reflection (measurement geometry d/8°) with a differential calorimeter (Dr. Lange Micro Color). The instrument was calibrated in accordance with the manufacturer's instructions. For this, the textile patches were dissolved out from the agar and subjected to the measurement with the differential calorimeter. In accordance with DIN 5033, the differential calorimeter determines the diffuse reflection of the samples at an angle of 8°.

The subject of another assay is Candida albicans. Briefly: Wash tests, contamination with Candida albicans. Format: cell-based. The note with it: addition of farnesol to detergent, versus same detergent without. Here is the method: The wash tests were performed in standard domestic washing machines (Miele W 918 Novotronic), which had previously been disinfected, in the delicates program at 30° C. The fungal cells were applied onto textile supports (polyamid, 2.5×2.5 cm) (2×10^5 cells/microbe support) and washed together with 3.5 kg of disinfected fill laundry with the detergent formulae. As the control, the wash was performed with the same detergent without farnesol. After the washing and drying in the air, both the residual microbial burden and also the microbial transfer to other, sterile textiles were determined.
The experiments were performed with the detergents A (addition of farnesol) and B (reference).
75 ml of the liquid detergent is added; this corresponds to a farnesol concentration of 20 ppm in the wash liquor.

[3] abbreviates: description, no concentration given.

For `CC=Cc1ccc(OC)cc1` [Anethole, 1-methoxy-4-(1-propenyl)benzene], the “Effective inhibitory concentration (hyphae formation inhibiting concentration)” value (“Effective inhibitory concentration” below) in assay [1] was determined as 0.10% wt. %.
`CCO` [Ethanol] gave a Growth rate in the assay with C. albicans (2 wt. %) of 0.5 h⁻¹.
Consider `O=C(O)/C=C/c1ccccc1` [Trans-cinnamic acid, trans-cinnamic acid], for which the “Effective inhibitory concentration” value in assay [1] turned out to be 0.01% wt. %.
As to `CC(C)=CCC/C(C)=C/CO` [Geraniol, geraniol], the “Effective inhibitory concentration” value in assay [1] was 0.01% wt. %.
Regarding fucoidan, the “cell growth (in words)” value in the assay with C. albicans (setting [3]) is recorded as “not affected”. In addition, the “Number of hyphal cells formed” value in assay [1] (YPS + fucoidan 0.2 wt. %, t 0 min, YPS alone 0) is on record as 0; in assay [1] (YPS + fucoidan 0.2 wt. %, t 20 min, YPS alone 0), 0; in assay [1] (YPS + fucoidan 0.2 wt. %, t 40 min, YPS alone 15), 4; in assay [1] (YPS + fucoidan 0.2 wt. %, t 60 min, YPS alone 75), 25. Besides, the “hyphae formation (in words)” value in assay [1] is given as “marked reduction”. The “formation of hyphae by Candida albicans (in words)” value in assay [1] (setting [3]) is “significantly reduced”.
With `CC(C)=CCCC(C)=CCCC(C)=CCO` [Farnesol, farnesol], the Relative light reflection in assay [2] (0.0025 wt. % test substance, polyester microfiber fabric, higher reflection = fewer adhered cells (YPD reference 48.7, YPS 44.7)) stood at 49.3. In addition, the “adhesion of fungi to textiles (in words)” value in assay [2] (concentrations of Table 1) is “reduction in the adhesion of fungi to textiles down to almost complete inhibition of the adhesion”. Further, the “adhesion of fungal cells to surfaces (in words)” value in assay [2] (in solutions which contain the substance) is reported as “scarcely or not at all”. In the assay with C. albicans (0.0025 wt. %), this compound gave a Growth rate of 0.51 h⁻¹. For the same compound, the “Number of hyphal cells formed” value is 0 in assay [1] (YPS + farnesol 0.005 wt. %, t 0 min, 37° C., YPS alone 0); 0 in assay [1] (YPS + farnesol 0.005 wt. %, t 20 min, YPS alone 0); 0 in assay [1] (YPS + farnesol 0.005 wt. %, t 40 min, YPS alone 15); 3 in assay [1] (YPS + farnesol 0.005 wt. %, t 60 min, YPS alone 75). In assay [1], the “hyphae formation (in words)” value was “essentially complete prevention”. Further, the “cross contamination of other laundry items (in words)” value in the assay with Candida albicans is “completely prevented”. Moreover, the “residual microbial burden (in words)” value in the assay with Candida albicans was “drastically reduced”.
